Measured values: PubChem BioAssay AID2060502 (Molecular Pharmacology Branch, DTP, NCI, 2025)

System: 885724-159-R-J1-PDC complex spheroid viability
Assay: Anticancer human tumor 885724-159-R-J1-PDC patient-derived pancreatic adenocarcinoma cell line growth inhibition [GQUAD]
Settings: for IC50: curve of first compound; for viability, T/C: stronger effect = lower value
Procedure, shortened: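 Viability of tumor cells grown as complex spheroids with endothelial and stromal cells, exposed to drug combinations. Top concentration at or near clinical Cmax (else 10 microM), diluted in half-log increments.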

[1] = second compound 0.0316 µM, first compound 0.000999 µM
[2] = second compound 0.0316 µM, first compound 0.00316 µM
[3] = second compound 0.0316 µM, first compound 0.00999 µM
[4] = second compound 0.0316 µM, first compound 0.0316 µM
[5] = second compound 0.0316 µM, first compound 0.0999 µM
[6] = second compound 0.0316 µM, first compound 0.316 µM
[7] = second compound 0.1 µM, first compound 0.000999 µM
[8] = second compound 0.1 µM, first compound 0.00316 µM
[9] = second compound 0.1 µM, first compound 0.00999 µM
[10] = second compound 0.1 µM, first compound 0.0316 µM
[11] = second compound 0.1 µM, first compound 0.0999 µM
[12] = second compound 0.1 µM, first compound 0.316 µM
[13] = second compound 0.316 µM, first compound 0.000999 µM
[14] = second compound 0.316 µM, first compound 0.00316 µM
[15] = second compound 0.316 µM, first compound 0.00999 µM
[16] = second compound 0.316 µM, first compound 0.0316 µM
[17] = second compound 0.316 µM, first compound 0.0999 µM
[18] = second compound 0.316 µM, first compound 0.316 µM
[19] = second compound 1 µM, first compound 0.000999 µM
[20] = second compound 1 µM, first compound 0.00316 µM
[21] = second compound 1 µM, first compound 0.00999 µM
[22] = second compound 1 µM, first compound 0.0316 µM
[23] = second compound 1 µM, first compound 0.0999 µM
[24] = second compound 1 µM, first compound 0.316 µM
[25] = second compound 3.16 µM, first compound 0.000999 µM
[26] = second compound 3.16 µM, first compound 0.00316 µM
[27] = second compound 3.16 µM, first compound 0.00999 µM
[28] = second compound 3.16 µM, first compound 0.0316 µM
[29] = second compound 3.16 µM, first compound 0.0999 µM
[30] = second compound 3.16 µM, first compound 0.316 µM
[31] = second compound 10 µM, first compound 0.000999 µM
[32] = second compound 10 µM, first compound 0.00316 µM
[33] = second compound 10 µM, first compound 0.00999 µM
[34] = second compound 10 µM, first compound 0.0316 µM
[35] = second compound 10 µM, first compound 0.0999 µM
[36] = second compound 10 µM, first compound 0.316 µM
[37] = second compound 0.0316 µM, first compound 0.1 µM
[38] = second compound 0.0316 µM, first compound 1 µM
[39] = second compound 0.0316 µM, first compound 3.16 µM
[40] = second compound 0.0316 µM, first compound 10 µM
[41] = second compound 0.1 µM, first compound 0.1 µM
[42] = second compound 0.1 µM, first compound 1 µM
[43] = second compound 0.1 µM, first compound 3.16 µM
[44] = second compound 0.1 µM, first compound 10 µM
[45] = second compound 0.316 µM, first compound 0.1 µM
[46] = second compound 0.316 µM, first compound 1 µM
[47] = second compound 0.316 µM, first compound 3.16 µM
[48] = second compound 0.316 µM, first compound 10 µM
[49] = second compound 1 µM, first compound 0.1 µM
[50] = second compound 1 µM, first compound 1 µM
[51] = second compound 1 µM, first compound 3.16 µM
[52] = second compound 1 µM, first compound 10 µM
[53] = second compound 3.16 µM, first compound 0.1 µM
[54] = second compound 3.16 µM, first compound 1 µM
[55] = second compound 3.16 µM, first compound 3.16 µM
[56] = second compound 3.16 µM, first compound 10 µM
[57] = second compound 10 µM, first compound 0.1 µM
[58] = second compound 10 µM, first compound 1 µM
[59] = second compound 10 µM, first compound 3.16 µM
[60] = second compound 10 µM, first compound 10 µM
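Note: spheroids exposed to agents for seven days before readout.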
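Throughout, for viability, T/C: percent of vehicle control viability where 100% = DMSO wells.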

SMILES: CCc1c2c(nc3ccc(O)cc13)-c1cc3c(c(=O)n1C2)COC(=O)[C@]3(O)CC + CN(C)c1ccc(Nc2c3ccc(NC(=O)CCN4CCCC4)cc3nc3cc(NC(=O)CCN4CCCC4)ccc23)cc1
- IC50 (second compound 0.0316 µM): 56.8 nM
- IC50 (second compound 0.1 µM): 59.5 nM
- IC50 (second compound 0.316 µM): 48.8 nM
- IC50 (second compound 1 µM): 23.8 nM
- IC50 (second compound 3.16 µM): 21.7 nM
- IC50 (second compound 10 µM): 20 nM
- viability, T/C [1]: 93.4%
- viability, T/C [2]: 78.9%
- viability, T/C [3]: 66.8%
- viability, T/C [4]: 56.9%
- viability, T/C [5]: 50.8%
- viability, T/C [6]: 9.22%
- viability, T/C [7]: 93.7%
- viability, T/C [8]: 72.2%
- viability, T/C [9]: 63.6%
- viability, T/C [10]: 59.7%
- viability, T/C [11]: 51.1%
- viability, T/C [12]: 7.61%
- viability, T/C [13]: 83.1%
- viability, T/C [14]: 73.1%
- viability, T/C [15]: 63.9%
- viability, T/C [16]: 48.1%
- viability, T/C [17]: 51.6%
- viability, T/C [18]: 9.1%
- viability, T/C [19]: 83.3%
- viability, T/C [20]: 65%
- viability, T/C [21]: 56.6%
- viability, T/C [22]: 47.4%
- viability, T/C [23]: 41.8%
- viability, T/C [24]: 9.11%
- viability, T/C [25]: 67.1%
- viability, T/C [26]: 60.4%
- viability, T/C [27]: 53.7%
- viability, T/C [28]: 42.7%
- viability, T/C [29]: 40.1%
- viability, T/C [30]: 8.41%
- viability, T/C [31]: 71%
- viability, T/C [32]: 70.1%
- viability, T/C [33]: 50.2%
- viability, T/C [34]: 42.9%
- viability, T/C [35]: 39.2%
- viability, T/C [36]: 9.18%

SMILES: CC1COCCN1c1cc(-c2ccnn2C)c2ccnc(-c3ccn[nH]3)c2n1 (stereo not drawn) + CN(C)c1ccc(Nc2c3ccc(NC(=O)CCN4CCCC4)cc3nc3cc(NC(=O)CCN4CCCC4)ccc23)cc1
- IC50 (second compound 0.0316 µM): 7550 nM
- IC50 (second compound 0.1 µM): 8810 nM
- IC50 (second compound 0.316 µM): > 10000 nM
- IC50 (second compound 1 µM): 2120 nM
- IC50 (second compound 3.16 µM): 1680 nM
- IC50 (second compound 10 µM): 1280 nM
- viability, T/C [4]: 91.5%
- viability, T/C [37]: 85.6%
- viability, T/C [6]: 71.7%
- viability, T/C [38]: 65%
- viability, T/C [39]: 53.7%
- viability, T/C [40]: 48.7%
- viability, T/C [10]: 99.8%
- viability, T/C [41]: 87%
- viability, T/C [12]: 70.9%
- viability, T/C [42]: 67%
- viability, T/C [43]: 48.1%
- viability, T/C [44]: 51.9%
- viability, T/C [16]: 95.7%
- viability, T/C [45]: 76.4%
- viability, T/C [18]: 86.9%
- viability, T/C [46]: 64.5%
- viability, T/C [47]: 52.7%
- viability, T/C [48]: 48.6%
- viability, T/C [22]: 86.8%
- viability, T/C [49]: 68.5%
- viability, T/C [24]: 63.8%
- viability, T/C [50]: 53.6%
- viability, T/C [51]: 50%
- viability, T/C [52]: 42.1%
- viability, T/C [28]: 87.5%
- viability, T/C [53]: 74.8%
- viability, T/C [30]: 72.7%
- viability, T/C [54]: 54.9%
- viability, T/C [55]: 41.8%
- viability, T/C [56]: 39.5%
- viability, T/C [34]: 74.2%
- viability, T/C [57]: 72.3%
- viability, T/C [36]: 52.8%
- viability, T/C [58]: 59.5%
- viability, T/C [59]: 39%
- viability, T/C [60]: 36.2%

SMILES: COc1cc(C2c3cc4c(cc3C(OC3OC5COC(C)OC5C(O)C3O)C3COC(=O)C23)OCO4)cc(OC)c1O (stereo not drawn) + Cc1cnc(CNC(=O)c2c(=O)c3ccc(N4CCCN(C)CC4)nc3n3c2sc2ccccc23)cn1
- IC50 (second compound 0.0316 µM): > 10000 nM
- IC50 (second compound 0.1 µM): > 10000 nM
- IC50 (second compound 0.316 µM): > 10000 nM
- IC50 (second compound 1 µM): > 10000 nM
- IC50 (second compound 3.16 µM): > 10000 nM
- IC50 (second compound 10 µM): > 10000 nM
- viability, T/C [4]: 113%
- viability, T/C [37]: 98.3%
- viability, T/C [6]: 101%
- viability, T/C [38]: 91.5%
- viability, T/C [39]: 84.5%
- viability, T/C [40]: 82.4%
- viability, T/C [10]: 116%
- viability, T/C [41]: 107%
- viability, T/C [12]: 90.2%
- viability, T/C [42]: 100%
- viability, T/C [43]: 95.2%
- viability, T/C [44]: 81.9%
- viability, T/C [16]: 108%
- viability, T/C [45]: 105%
- viability, T/C [18]: 102%
- viability, T/C [46]: 91.1%
- viability, T/C [47]: 84.8%
- viability, T/C [48]: 79.3%
- viability, T/C [22]: 105%
- viability, T/C [49]: 87.2%
- viability, T/C [24]: 97.8%
- viability, T/C [50]: 89.6%
- viability, T/C [51]: 84.8%
- viability, T/C [52]: 76.1%
- viability, T/C [28]: 79.8%
- viability, T/C [53]: 81.4%
- viability, T/C [30]: 87.6%
- viability, T/C [54]: 84.2%
- viability, T/C [55]: 83.5%
- viability, T/C [56]: 71.1%
- viability, T/C [34]: 81.7%
- viability, T/C [57]: 79.5%
- viability, T/C [36]: 76.7%
- viability, T/C [58]: 82.4%
- viability, T/C [59]: 78.3%
- viability, T/C [60]: 70.7%

SMILES: Cn1ncnc1[C@H]1c2n[nH]c(=O)c3cc(F)cc(c23)N[C@@H]1c1ccc(F)cc1 + Cc1[nH]c2ccc(F)cc2c1-c1nc2c3cccnc3c3ncccc3c2[nH]1
- IC50 (second compound 0.0316 µM): > 316 nM
- IC50 (second compound 0.1 µM): > 316 nM
- IC50 (second compound 0.316 µM): > 316 nM
- IC50 (second compound 1 µM): > 316 nM
- IC50 (second compound 3.16 µM): < 0.999 nM
- IC50 (second compound 10 µM): > 316 nM
- viability, T/C [1]: 104%
- viability, T/C [2]: 95.2%
- viability, T/C [3]: 106%
- viability, T/C [4]: 80.6%
- viability, T/C [5]: 91.9%
- viability, T/C [6]: 95.8%
- viability, T/C [7]: 97.5%
- viability, T/C [8]: 90%
- viability, T/C [9]: 85.6%
- viability, T/C [10]: 93.9%
- viability, T/C [11]: 88.3%
- viability, T/C [12]: 80.2%
- viability, T/C [13]: 87.3%
- viability, T/C [14]: 106%
- viability, T/C [15]: 92%
- viability, T/C [16]: 91.3%
- viability, T/C [17]: 80.8%
- viability, T/C [18]: 82.2%
- viability, T/C [19]: 78%
- viability, T/C [20]: 68.4%
- viability, T/C [21]: 68.8%
- viability, T/C [22]: 73.6%
- viability, T/C [23]: 72%
- viability, T/C [24]: 81%
- viability, T/C [25]: 40.1%
- viability, T/C [26]: 36.1%
- viability, T/C [27]: 43.8%
- viability, T/C [28]: 33.8%
- viability, T/C [29]: 38%
- viability, T/C [30]: 42.8%
- viability, T/C [31]: 63%
- viability, T/C [32]: 78.6%
- viability, T/C [33]: 73.6%
- viability, T/C [34]: 66.8%
- viability, T/C [35]: 80.6%
- viability, T/C [36]: 68.2%
